These are literature values, as cited in patent publication US20160375061A1, “COMPOSITION INVOLVED IN REGULATING ENERGY CYCLE, INFLAMMATION AND INSULIN RESISTANCE DYSFUNCTIONS, AND USE THEREOF PARTICULARLY IN CARDIOMETABOLIC DISEASES” (INTERNATIONAL NUTRITION RESEARCH COMPANY, priority 2013, published 2016).

The conditions of this data set: mutation of the gene transporter OCT1; normal daily doses 1 to 3 g/day.

On to `CN(C)C(=N)N=C(N)N` [metformin], for which the “concentrations of metformin (saturation)” value is 30 ± 19 ng/mL.
